Columns and labels:
[1] = biological target: T1, tubulin (Sus scrofa, UniProt P02550+P02554); test: Evaluation of the inhibition of tubulin polymerization (turbidimetry); format: biochemical, pig; settings: tubulin 10 μm (1 mg/ml), 37° C., turbidity at 350 nm; concentration that inhibits the rate of polymerization by 50%; read-out: Inhibition of tubulin polymerization IC 50 (μm)
T1 construct: Tubulin is purified from pig brain according to published methods; from tissue; host or cells: pig brain
T1 sequence (P02550 whole entry): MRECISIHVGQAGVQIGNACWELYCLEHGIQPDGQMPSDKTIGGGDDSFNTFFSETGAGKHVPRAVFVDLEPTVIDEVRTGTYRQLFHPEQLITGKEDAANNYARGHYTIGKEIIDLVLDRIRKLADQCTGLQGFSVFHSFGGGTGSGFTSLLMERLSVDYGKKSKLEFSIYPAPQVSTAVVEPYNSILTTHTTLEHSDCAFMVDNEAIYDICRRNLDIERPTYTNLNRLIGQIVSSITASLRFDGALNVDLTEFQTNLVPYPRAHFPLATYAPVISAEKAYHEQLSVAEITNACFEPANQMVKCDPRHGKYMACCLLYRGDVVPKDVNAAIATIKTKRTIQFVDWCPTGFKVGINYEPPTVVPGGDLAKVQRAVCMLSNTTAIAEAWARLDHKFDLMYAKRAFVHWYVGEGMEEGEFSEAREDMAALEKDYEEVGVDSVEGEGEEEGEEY
T1 sequence (P02554 whole entry): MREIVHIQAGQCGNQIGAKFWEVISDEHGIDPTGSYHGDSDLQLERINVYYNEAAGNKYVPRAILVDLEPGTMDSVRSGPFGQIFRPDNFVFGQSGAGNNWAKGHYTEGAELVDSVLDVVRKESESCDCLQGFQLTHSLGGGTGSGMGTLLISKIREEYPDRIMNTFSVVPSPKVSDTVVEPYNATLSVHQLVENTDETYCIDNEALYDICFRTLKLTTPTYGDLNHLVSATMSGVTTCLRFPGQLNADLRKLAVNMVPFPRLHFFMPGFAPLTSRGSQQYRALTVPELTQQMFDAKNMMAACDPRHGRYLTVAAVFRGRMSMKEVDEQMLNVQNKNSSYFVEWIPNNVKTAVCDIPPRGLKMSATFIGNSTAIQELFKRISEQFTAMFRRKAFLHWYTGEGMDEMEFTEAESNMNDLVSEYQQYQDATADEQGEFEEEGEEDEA
How it was run: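 Pig brain tubulin (>95% pure), 10 μm in MES pH 6.8/30% glycerol buffer plus 1 mM GTP and 6 mM MgCl2, with compound at 0.5–10 μm added before polymerization. Polymerization triggered by shift from 6° C to 37° C, followed by turbidity at 350 nm; IC50 is 50% inhibition of polymerization rate.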

[2] = tested on: HCT116 cells; test: Inhibition of proliferation of the human colon tumor line HCT116 ([14C]-thymidine incorporation); format: cell-based; settings: Homo sapiens, HCT-116, 48 h, 48 hours at 37° C., read-out: Inhibition of HCT116 proliferation IC 50 (μm)
How it was run: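 HCT116 cells (5000/well) in DMEM with 10% fetal calf serum incubated 48 h at 37° C with [14C]-thymidine (0.1 μCi/well) and compound up to 10 μm (DMSO ≤0.5%). Incorporated radioactivity counted; IC50 is concentration cutting radioactivity by 50% versus untreated control.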

Structure (SMILES) | IC50 [1] | IC50 [2]
Cc1cc(C(=O)N2CCN(c3cccc(C(F)(F)F)c3)CC2)n(-c2ccc(Cl)cc2)n1 [3/72] | 7000 nM | 143 nM
O=C(c1cc(COCc2ccccc2)nn1-c1ccccc1)N1CCN(c2cccc(Cl)c2)CC1 [Example E80, (5-Benzyloxymethyl-2-phenyl-2H-pyrazol-3-yl)[4-(3-chlorophenyl)piperazin-1-yl]methanone] | 4400 nM | 1130 nM
Cc1cc(C(=O)N2CCN(c3cc(Cl)cc(Cl)c3)CC2)n(-c2ccccc2)n1 [Example E2, [4-(3,5-Dichlorophenyl)piperazin-1-yl](5-methyl-2-phenyl-2H-pyrazol-3-yl)methanone] | 1500 nM | 0.1 nM
Cc1cc(C(=O)N2CCN(c3ccc(C)c(Cl)c3)CC2)n(-c2ccccc2)n1 [3/151] | 1700 nM | 22.1 nM
Cc1cc(C(=O)N2CCN(c3ccccc3)CC2)n(-c2ccccc2)n1 [3/6] | 4500 nM | 177 nM
COc1ccc(Cl)cc1N1CCN(C(=O)c2cc(C)nn2-c2ccc(F)cc2)CC1 [3/60] | 1300 nM | 8.6 nM
Cc1cccc(-n2nc(C)cc2C(=O)N2CCN(c3ccccc3)CC2)c1 [3/44] | 2000 nM | 47 nM
Cc1cccc(N2CCN(C(=O)c3cc(C)nn3-c3ccc(F)cc3)CC2)c1 [3/57] | 1400 nM | 15 nM
COc1cccc(N2CCN(C(=O)c3cc(C)nn3-c3cccc(OC)c3)CC2)c1 [3/82] | 1200 nM | 8.3 nM
Cc1cc(C(=O)N2CCN(c3cccc(Cl)n3)CC2)n(-c2ccccc2)n1 [Example E4, [4-(6-Chloropyrid-2-yl)piperazin-1-yl](5-methyl-2-phenyl-2H-pyrazol-3-yl)-methanone] | 1300 nM | 4.7 nM
Cc1cc(C(=O)N2CCN(c3ccnc4ccccc34)CC2)n(-c2ccccc2)n1 [Example E17, (5-Methyl-2-phenyl-2H-pyrazol-3-yl)(4-quinolin-4-ylpiperazin-1-yl)methanone] | 1500 nM | 8.5 nM
COc1cccc(-n2nc(C)cc2C(=O)N2CCN(c3cc(Cl)ccc3C)CC2)c1 [3/4] | 1800 nM | 389 nM
O=C(c1ccnn1-c1ccccc1)N1CCN(c2cccc(Cl)c2)CC1 [Example 5, [4-(3-Chlorophenyl)piperazin-1-yl](2-phenyl-2H-pyrazol-3-yl)methanone] | 1200 nM | 4.1 nM
Cc1cc(C(=O)N2CCN(c3cccc(C)c3C)CC2)n(-c2ccccc2F)n1 [3/141] | 7000 nM | 66 nM
CCc1ccccc1N1CCN(C(=O)c2cc(C)nn2-c2cccc(F)c2)CC1 [3/95] | 3000 nM | 164 nM
COc1cccc(-n2nc(C)cc2C(=O)N2CCN(c3cccc(C)c3C)CC2)c1 [3/135] | 6000 nM | 321 nM
Cc1cc(C(=O)N2CCN(c3cccc4ccccc34)CC2)n(-c2ccccc2F)n1 [3/143] | 2500 nM | 140 nM
COc1cccc(-n2nc(C)cc2C(=O)N2CCN(c3cccc(Cl)c3Cl)CC2)c1 [3/139] | < 25000 nM | 1350 nM
COc1cccc(N2CCN(C(=O)c3cc(C)nn3-c3ccc(C)cc3)CC2)c1 [3/80] | 5000 nM | 78 nM
Cc1cc(C(=O)N2CCN(c3cccc(C(=O)NCCO)c3)CC2)n(-c2ccccc2)n1 [Example E40, N-(2-Hydroxyethyl)-3-[4-(5-methyl-2-phenyl-2H-pyrazole-3-carbonyl)piperazin-1-yl]benzamide] | 1600 nM | 118 nM
Cc1ccc(-n2nc(C)cc2C(=O)N2CCN(c3ccc(Cl)c(Cl)c3)CC2)cc1 [3/76] | 3000 nM | 1080 nM
Cc1cc(C(=O)N2CCN(c3cccc(C(N)=O)c3)CC2)n(-c2cccnc2)n1 [Example E97, 3-[4-(5-Methyl-2-pyrid-3-yl-2H-pyrazole-3-carbonyl)piperazin-1-yl]benzamide] | 3600 nM | 81.1 nM

From patent US20050130989A1, “N-arylheteroaromatic products compositions containing them and use thereof” (Aventis Pharma S. A., priority 2003, published 2005)
